Read-outs that look alike come from different tables or passages of the source.
Key:
[1] = system: human Kv4.3/KChIP2.2 potassium channel; assay: Whole cell patch clamp, CHO-K1 cells stably expressing human Kv4.3/KChIP2.2; format: cell-based; details: selectivity for Kv4.3 vs hERG (Patch Clamp test); >5 considered very selective
[2] = system: C. elegans wild-type strain N2; assay: Same C. elegans pumping assay format using wild-type strain N2; format: in vivo; details: read-out: EC50 (μM) Wild type worm N2
Source text: The screening of the compounds according to the present invention has been performed in the C. elegans based high-throughput screen for Kv4.3 modulators described above. The method for testing the activity on human Kv4.3 of the compounds according to the invention with C. elegans strains expressing human Kv4.3 for their activity is the same as the method described in WO 03/097682. The method for testing the compounds on wild-type C. elegans strains not expressing human Kv4.3 is the same as the method described in WO 00/63427. Briefly, UG1755 animals have been grown in large numbers and staged young adults (no or only few eggs inside the uterus) have been harvested on the day of screening. Approximately 125 animals in 80 μl buffer have been dispensed per well of a “U shaped 96-well compound plate The compound plate contained already compound material at a final concentration of 30 μM in 0.3% DMSO. After one hour incubation 10 μl of the fluorescent label Calcein AM (CAM) have been added to achieve a final concentration of 5 μM CAM and 0.8% DMSO. After another four hours of incubation at 20° C., the drinking of C. elegans animals (or the “reaction 8 measured by the uptake of CAM) has been stopped by adding 10 μl of a 60 μM ivermectin solution. The fluorescence intensity (counts per second) has been measured 40 minutes after adding ivermectin with the Wallac plate reader at a wavelength of 535 nm (after excitation at 485 nm).
These compounds have been also tested in the same assay format using a C. elegans wild-type strain N2 and the corresponding EC50 has been calculated. The ratio of the EC50s obtained for a compound on the two strains (transgenic expressing human Kv4.3 and wild-type) gives an indication on whether said compound is acting on human Kv4.3. […]

Row | Molecule | melting point | Ratio hERG/Kv4.3 [1] | further results
1 | 2-(4-bromo-phenylamino)-4-methyl-thiazole-5-carboxylic acid 1,2,3,4-tetrahydroisoquinolinamide [Compound 66] |  | 29.1 | 
2 | Cc1nc(Nc2ccc(F)cc2)sc1C(=O)N[C@H](C)c1ccc2ccccc2c1 [Compound 16, 2-(4-fluoro-phenylamino)-4-methyl-thiazole-5-carboxylic acid (R)-1-(naphthalen-2-yl)ethyl amide] |  |  | EC50 ([2]; Caenorhabditis elegans): > 60 µM
3 | Cc1nc(Nc2ccc(Br)cc2)sc1C(=O)N[C@@H](C)c1ccc2ccccc2c1 [Compound 18, 2-(4-bromo-phenylamino)-4-methyl-thiazole-5-carboxylic acid (S)-1-(naphthalen-2-yl)ethyl amide] |  | 6.9 | EC50 ([2]; Caenorhabditis elegans): 33 µM
4 | Cc1nc(Nc2ccc(Br)cc2)sc1C(=O)N[C@H](C)c1ccc2ccccc2c1 [Compound 19, 2-(4-bromo-phenylamino)-4-methyl-thiazole-5-carboxylic acid (R)-1-(naphthalen-2-yl)ethyl amide] |  | 33.1 | EC50 ([2]; Caenorhabditis elegans): 33 µM
5 | Cc1nc(Nc2ccc(Cl)cc2)sc1C(=O)N[C@@H]1CCC[C@H]1OCc1ccccc1 [Compound 30, 2-(4-chloro-phenylamino)-4-methyl-thiazole-5-carboxylic acid (1R,2R)-2-(benzyloxycyclopent-1-yl) amide] |  | 8.7 | EC50 [2]: > 60 µM
6 | COc1ccccc1Nc1nc(C)c(C(=O)N[C@@H]2CCC[C@H]2OCc2ccccc2)s1 [Compound 31, 2-(2-methoxy-phenylamino)-4-methyl-thiazole-5-carboxylic acid (1R,2R)-2-(benzyloxycyclopent-1-yl) amide] |  | 8.7 | 
7 | COc1ccc(OC)c(Nc2nc(C)c(C(=O)N[C@@H]3CCC[C@H]3OCc3ccccc3)s2)c1 [Compound 33, 2-(2,5-dimethoxyphenylamino)-4-methylthiazole-5-carboxylic acid (1R,2R)-2-(benzyloxycyclopent-1-yl) amide] |  | 10.0 | 
8 | COc1cccc([C@@H](C)NC(=O)c2sc(Nc3cc(Cl)ccc3OC)nc2C)c1 [Compound 34] |  | 5.4 | 
9 | Cc1nc(Nc2ccc(Cl)cc2)sc1C(=O)N[C@H](C)c1ccc2ccccc2c1 [Compound 52, 2-(4-chloro-phenylamino)-4-methyl-thiazole-5-carboxylic acid (R)-1-(2-naphtalen-2-yl-ethyl)-amide] |  | 65.4 | 
10 | Cc1nc(Nc2ccc(Cl)cc2)sc1C(=O)N[C@@H](C)c1ccc2ccccc2c1 [Compound 54, 2-(4-chloro-phenylamino)-4-methyl-thiazole-5-carboxylic acid (S)-1-(2-naphtalen-2-yl-ethyl)-amide] |  | 6.6 | 
11 | COc1ccccc1Nc1nc(C)c(C(=O)N[C@@H](C)c2ccc3ccccc3c2)s1 [Compound 55, 2-(2-methoxy-phenylamino)-4-methyl-thiazole-5-carboxylic acid (S)-1-(2-naphtalen-2-yl-ethyl)-amide] |  | 5.0 | 
12 | Cc1nc(Nc2ccc(Br)cc2)sc1C(=O)NCc1cccc2ccccc12 [Compound 56, 2-(4-bromo-phenylamino)-4-methyl-thiazole-5-carboxylic acid (naphtalen-1-yl-methyl)-amide] |  | 6.6 | 
13 | COc1ccc(CNC(=O)c2sc(Nc3ccc(Br)cc3)nc2C)cc1 [Compound 60, 2-(4-bromo-phenylamino)-4-methyl-thiazole-5-carboxylic acid 4-methoxy-benzylamide] |  | 7.7 | 
14 | Cc1nc(Nc2ccc(Br)cc2)sc1C(=O)NCc1ccc(F)c(C(F)(F)F)c1 [Compound 63, 2-(4-bromo-phenylamino)-4-methyl-thiazole-5-carboxylic acid 4-fluoro-3-trifluoromethyl-benzylamide] |  | 33.1 | 
15 | Cc1nc(Nc2ccc(Br)cc2)sc1C(=O)NCc1ccc(N(C)C)cc1 [Compound 64, 2-(4-bromo-phenylamino)-4-methyl-thiazole-5-carboxylic acid 4-dimethylamino-benzylamide] |  | >120 | 
16 | COc1cc(CNC(=O)c2sc(Nc3ccc(Br)cc3)nc2C)cc(OC)c1 [Compound 65, 2-(4-bromo-phenylamino)-4-methyl-thiazole-5-carboxylic acid 3,5-dimethoxy-benzylamide] |  | 9.1 | 
17 | COc1ccccc1Nc1nc(C)c(C(=O)N[C@H]2CCC[C@@H]2OCc2ccccc2)s1 [Compound 68, 2-(2-methoxy-phenylamino)-4-methyl-thiazole-5-carboxylic acid (1S,2S)-2-(benzyloxycyclopent-1-yl) amide] |  | 14.7 | 
18 | COc1ccccc1Nc1nc(C)c(C(=O)NCc2c(C)cccc2Cl)s1 [Compound 98, 2-(2-methoxy-phenylamino)-4-methyl-thiazole-5-carboxylic acid 2-chloro-6-methyl-benzylamide] | 105.4 to 107.6 °C |  | 
19 | COc1ccccc1Nc1nc(C)c(C(=O)NCc2ccc(C(C)(C)C)cc2)s1 [Compound 106, 2-(2-methoxy-phenylamino)-4-methyl-thiazole-5-carboxylic acid 4-tert-butyl-benzylamide] | 168.5 to 169.4 °C |  | 

More lines, main results first:

Row | melting point | Molecule | Ratio hERG/Kv4.3 [1] | further results
20 | 69.7 to 71.6 °C | COc1ccccc1Nc1ccc(C(=O)N[C@H]2CCC[C@@H]2OCc2ccccc2)s1 [Compound 75, 2-(2-methoxy-phenylamino)-thiophene-5-carboxylic acid ((1S,2S)-2-benzyloxycyclopent-1-yl) amide] |  | 
21 | 97.3 to 99.8 °C | COc1ccccc1Nc1nccc(C(=O)N[C@H]2CCC[C@@H]2OCc2ccccc2)n1 [Compound 76, 2-(2-methoxy-phenylamino)-pyrimidine-4-carboxylic acid ((1S,2S)-2-benzyloxycyclopent-1-yl) amide] |  | 
22 | 129.5 to 132.4 °C | Cc1nc(Sc2ccccc2)sc1C(=O)N[C@H]1CCC[C@@H]1OCc1ccccc1 [Compound 81, 4-methyl-2-phenylsulfanyl-thiazole-5-carboxylic acid ((1S,2S)-2-benzyloxycyclopent-1-yl) amide] |  | 
23 | 102.4 to 108.2 °C | Cc1nc(Nc2cccc3ccccc23)sc1C(=O)N[C@H]1CCC[C@@H]1OCc1ccccc1 [Compound 93] |  | 
24 | 178 to 180.1 °C | Cc1nc(Nc2ccc3c(c2)OCCO3)sc1C(=O)N[C@H]1CCC[C@@H]1OCc1ccccc1 [Compound 95] |  | 
25 | 66.5 °C | COc1ccccc1Nc1nc(C)c(C(=O)NCc2ccccc2SC)s1 [Compound 97] |  | 
26 | 136.5 to 140.1 °C | COc1ccccc1Nc1nc(C)c(C(=O)NCc2ccc3c(c2)CCO3)s1 [Compound 104, 2-(2-methoxy-phenylamino)-4-methyl-thiazole-5-carboxylic acid (2,3-dihydro-benzofuran-5-ylmethyl)-amide] |  | 
27 | 183.3 to 185.2 °C | COc1ccccc1Nc1nc(C)c(C(=O)NCc2ccc(N(C)C)cc2)s1 [Compound 105, 2-(2-methoxy-phenylamino)-4-methyl-thiazole-5-carboxylic acid 4-dimethylamino-benzylamide] |  | 
28 | 150.7 to 154.2 °C | COc1ccccc1Nc1nc(C)c(C(=O)NCc2ccc(Br)cc2)s1 [Compound 108, 2-(2-methoxy-phenylamino)-4-methyl-thiazole-5-carboxylic acid 4-bromo-benzylamide] |  | 
29 | 164.4 to 169.3 °C | Cc1nc(Nc2ccc3occc3c2)sc1C(=O)N[C@H]1CCC[C@@H]1OCc1ccccc1 [Compound 126, 2-(benzofuran-5-ylamino)-4-methyl-thiazole-5-carboxylic acid ((1S,2S)-2-benzyloxycyclopent-1-yl) amide] |  | 
30 | 88.7 to 90 °C | Cc1nc(NC(=O)c2ccc(C(C)(C)C)cc2)sc1C(=O)N[C@H]1CCC[C@@H]1OCc1ccccc1 [Compound 180, 2-(4-tert-butyl-benzoylamino)-4-methyl-thiazole-5-carboxylic acid ((1S,2S)-2-benzyloxycyclopent-1-yl) amide] |  | 

— US20080125432A1 (Devgen NV, priority 2004, published 2008)
